Source: BindingDB's records for doi:10.1016/j.bmcl.2008.07.062 (The Scripps Research Institute, 2008)

Experiments:
[1] = Inhibition of JAK3 expressed in mouse BAF3 cells assessed as cytotoxicity
[2] = Inhibition of Blk expressed in mouse BAF3 cells assessed as cytotoxicity

With `C=CC(=O)Nc1ccc2ncnc(Nc3cccc(Br)c3)c2c1` the IC50 [1] was over 10 µM and the IC50 [2] was over 10 µM.
